Values quoted from earlier work in patent publication US20100255080A1, “Liposomal ALA pharmaceutical and cosmeceutical compositions and methods of treatment” (SESVALIA USA, LLC, priority 2009, published 2010).

Conditions: printed as the pH near the pka

Cl.NCC(=O)CCC(=O)O [ALA, 5-aminolevulinic acid]
pka: about 4
